Where two headings read alike, the source gives them in different places.
How the values were obtained:
[1] = system: α-adrenergic; assay: α-Adrenergic blocking action: antagonism of the hypertensive response to phenylephrine in anesthetized rats; format: in vivo; settings: Rattus norvegicus, iv, read-out: α-blocking activity (rat) ED50 (mg/kg) i.v.
Protocol: (§1) The pharmacological effects of the compounds of this invention were determined by the following experiments. The effects of the typical compounds of this invention were compared with those of 5-{1-hydroxy-2-[2-(2-methoxyphenoxy)ethylamino]ethyl}-2-methylbenzenesulfonamide (referred to as "Compound A") which is one of the typical compounds disclosed in British Pat. No. 2,006,772 and phentolamine.
A. α-Adrenergic blocking action:
The blood pressure was measured in the rats anesthetized with urethane and treated with pentolinium. The effects of the test samples (intravenous injection) to antagonize the hypertensive response to phenylephrine (10 μg/Kg i.v.) were measured and the results were shown in Table I.

[2] = Antihypertensive effects in spontaneously hypertensive rats (oral administration, tail cuff method); format: in vivo; settings: 30 mg/kg P.O., spontaneously hypertensive rats with systolic blood pressure higher than 150 mmHg
Protocol: as §1
B. Antihypertensive effects in spontaneously hypertensive rats:
Oral administration:--The systolic blood pressure was measured indirectly by the tail cuff method using a programmed electrosphygmanometer (Nacro-Bio-Systems Inc., PE-300) on spontaneously hypertensive rats having the systolic blood pressure of higher than 150 mmHg, the results being shown in Table II.

[3] = rats anesthetized with urethane and treated with pentolinium, i.v. test sample, phenylephrine 10 μg/Kg i.v.

**Q.** What does the source list for COc1ccccc1OCCNCC(O)c1ccc(C)c(S(N)(=O)=O)c1 (stereo not shown) [Compound A, 5-{1-hydroxy-2-[2-(2-methoxyphenoxy)ethylamino]ethyl}-2-methylbenzenesulfonamide, reference compound]?
**A.** ED50 [1, 3]: 0.032 mg/kg; change in systolic blood pressure (mm Hg) at stated dose P.O. [2]: -30 mm Hg

**Q.** Which ED50 [1, 3] does the source give for COc1ccccc1OCCNCC(O)c1ccc(C)c([S+](C)[O-])c1.O=C(O)C(=O)O (stereo not drawn) [Example 5, α-{[2-(2-Methoxyphenoxy)ethylamino]methyl}-4-methyl-3-methylsulfinylbenzenemethanol oxalate] here?
**A.** 0.045 mg/kg

**Q.** What about the “change in systolic blood pressure (mm Hg) at stated dose P.O.” value (shortened to “change … at stated dose P.O.”) [2] of the same compound?
**A.** -60 mm Hg

**Q.** Which ED50 [1] does the source give for CCOc1ccccc1OCCNC(C)Cc1ccc(OC)c(SC)c1.Cl (stereo not shown) [Example 8, 4-{2-[2-(2-Ethoxyphenoxy)ethylamino]-2-methylethyl}-2-(methylthio)anisole hydrochloride] here?
**A.** 0.0019 mg/kg

**Q.** What about the “change … at stated dose P.O.” value [2] of the same compound?
**A.** -48 mm Hg

**Q.** For CCOc1ccccc1OCCNC(C)Cc1ccc(OC)c(S(C)(=O)=O)c1.Cl (stereo not shown) [Example 12, 4-{2-[2-(2-Ethoxyphenoxy)ethylamino]-2-methylethyl}-2-(methylsulfonyl)anisole hydrochloride], which ED50 [1] is on record?
**A.** 0.00014 mg/kg

**Q.** What about the “change … at stated dose P.O.” value [2] of the same compound?
**A.** -58 mm Hg

**Q.** With Cc1ccc(N(CC2=NCCN2)c2cccc(O)c2)cc1 [phentolamine, reference compound] as the compound, how does the ED50 [1, 3] read?
**A.** 0.061 mg/kg

**Q.** What about the “change … at stated dose P.O.” value [2] of the same compound?
**A.** -53 mm Hg

— US4880841A, “Process of producing phenethylamine derivatives” (Yamanouchi Pharmaceutical Co., Ltd., priority 1980, dated 1989)
